In PMC5382548 (Scientific Reports, 2015):

Key:
[1] = system: KRAS21R G4; assay: Binding stoichiometry, Job plot (continuous variation); parameters: species or system human; settings: [3e] + [G4] = 4 μM, 25°C
Experimental: In order to determine the number of ligand-binding sites, continuous variation analysis (Job plot)[27] of 3e with KRAS21R was performed. Plotting of fluorescence as a function of the mole fraction of 3e (χ) gave linear dependences at high and low molar fractions (Figure S9b).
The binding stoichiometry of indolo[3,2-c]quinoline derivative 3e with KRAS21R G4 was obtained by spectrophotofluorimetry at 25°C using the Job method of continuous variation. A previously annealed G4 stock solution at 25 μM (heating to 95°C for 10 min, followed by slow cooling to RT) of the non-labelled oligonucleotide sequences KRAS21R in K-cacodylate buffer pH 7.4 (containing 60 mM K^+) was used. Test compound was prepared at 1 mM concentration in HPLC-grade water (10% DMSO) stock solution. The rest of the dilutions were performed using K-cacodylate buffer. Total concentration of ligand and G4 in the solution was kept constant ([3e] + [G4] = 4 μM) as previously described.
Figure S9 | a) CD titration spectra of the KRAS21R and induced by titration with 3e in K-cacodylate buffer pH 7.4, containing 60 mM K+ at 25 °C. Solid black line – Pure G4 DNA at […]
sequentially from the top around 260 nm; b) Job Plot of 3e in complex with KRAS21R G4 in K-cacodylate buffer pH 7.4, containing 60 mM K+, at 25 °C. The sum of the concentrations of 3e and G4 was kept constant at 4 µM.
Figure S10. […]

[2] = system: HT21 (DNA, G4) GGGTTAGGGTAGGGTTAGGG; assay: circular dichroism; settings: 60 mM K+; K-cacodylate pH 7.4, 25 °C; hybrid G4 changes to antiparallel
[3] = system: p21^KRAS protein in HCT116 cells; assay: p21KRAS protein immunoblot, HCT116; assay type: cell-based, human; settings: IC50 concentration, 72 h; cell line not given
Experimental: (a) KRAS mRNA steady-state expression was evaluated by Taqman Real-time RT-PCR using specific Taqman Assays for KRAS and β-Actin for normalization. KRAS mRNA steady-state expression levels were calculated by the ΔΔCt method, using DMSO (vehicle control) for calibration; and (b) KRAS protein steady-state expression evaluated by immunoblot relative to control (DMSO vehicle) Results are expressed as mean ± SEM of at least three independent experiments; *p < 0.05 and §p < 0.01 from DMSO (vehicle control).
In agreement with its reported capacity to accumulate in cytoplasm, bind to UTR1 and UTR2 RNA G4[14][20] and inhibit NRAS translation, TMPyP4 reduced the levels of p21^KRAS by ~75% in HCT116 cells. […]
Samples were homogenized in ice-cold 1:1 solution of buffer A [10 mm Tris•HCl pH 7.6, 5 mm MgCl2, 1.5 mm KOAc, 2 mm dithiothreitol (DTT), and Halt Protease and Phosphatase inhibitor cocktail, EDTA-free (#78445, Thermo Scientific)] and buffer 2X (10 mm Tris•HCl pH 7.6, 1% Nonidet-P40, and Halt Protease and Phosphatase inhibitor cocktail), by vigorous vortexing and incubated on ice for 30 min. […] Protein concentrations were determined using the BioRad protein assay kit according to the manufacturer’s instructions. Steady-state levels of KRAS protein were determined by immunoblot analysis. […] Steady-state protein levels were expressed as mean ±SEM from at least three independent experiments.

[4] = system: mouse KRAS promoter; parameters: method as in PMID 16687659; settings: 3–20 μM 24 hours prior to transfection; cited from earlier work

## CCN(CC)CCCNc1ccc2c(c1)[nH]c1c2c[n+](C)c2ccc(NCCCN(CC)CC)cc12.[Cl-] [3e]
[1]
  Job plot molar fraction at intersection: 0.61
[2]
  binding: yes

## CCN(CC)CCCNc1ccc2c(c1)c1[nH]c3ccccc3c1c[n+]2C [2d]
[3]
  KRAS protein levels reduced to (% remaining): ~ 50%

## C[n+]1ccc(-c2c3nc(c(-c4cc[n+](C)cc4)c4ccc([nH]4)c(-c4cc[n+](C)cc4)c4ccc([nH]4)c(-c4cc[n+](C)cc4)c4nc2C=C4)C=C3)cc1 [TMPyP4, reference compound]
[4]
  Reduction of mouse KRAS promoter activity: 80%
